What was measured:
MKNK1 [1] = molecular target: T1, MKNK1 (Homo sapiens, UniProt Q9BUB5, T385D); test: MKNK1 kinase assay (MKNK1 TR-FRET assay); assay type: biochemical; conditions: 10 μM ATP, 15 min preincubation
T1 construct: GST (N); purchased Carna Biosciences 02-145; host or cells: insect cells (baculovirus expression system)

MKNK1 [2] = molecular target: T1, MKNK1; test: MKNK1 kinase high ATP assay (TR-FRET-based); assay type: biochemical; conditions: 2 mM ATP, 15 min preincubation
Summary of the method: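 TR-FRET read-out (anti-phospho-S6 Ser236 antibody, Eu/XL665) of biotin-peptide phosphorylation (0.06 μM) at high ATP (2 mM final). Enzyme was GST-MKNK1 full length, T344D, pre-bound to compound for 15 min before a 30 min reaction at 22 °C, pH 7.5. Inhibition scaled between no-inhibitor (0%) and no-enzyme (100%) wells.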

T1 sequence (Q9BUB5 1-424 isoform Q9BUB5-2 T344D): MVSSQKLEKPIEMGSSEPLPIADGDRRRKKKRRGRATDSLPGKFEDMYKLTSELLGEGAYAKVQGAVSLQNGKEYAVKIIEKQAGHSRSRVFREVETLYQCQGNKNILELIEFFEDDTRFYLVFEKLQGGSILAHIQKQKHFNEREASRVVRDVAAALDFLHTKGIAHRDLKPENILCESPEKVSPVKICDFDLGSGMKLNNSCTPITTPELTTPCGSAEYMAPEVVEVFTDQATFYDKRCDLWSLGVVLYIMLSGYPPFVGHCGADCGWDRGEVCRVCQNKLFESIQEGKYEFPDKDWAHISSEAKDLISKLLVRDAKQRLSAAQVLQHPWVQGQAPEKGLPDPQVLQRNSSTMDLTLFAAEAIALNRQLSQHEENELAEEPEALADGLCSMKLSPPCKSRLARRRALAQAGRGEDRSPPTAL

SMILES	IC50 (MKNK1 [1]; Table 1c) [nM]	IC50 (MKNK1 [2]; Table 2c) [nM]	IC50 (MKNK1 [1]; Table 1a) [nM]	IC50 (MKNK1 [2]; Table 2a) [nM]	IC50 (MKNK1 [1]; Table 1b) [nM]	IC50 (MKNK1 [2]; Table 2b) [nM]
C[C@@H]1CN(c2nccc3oc(-c4cnc5ccc(OC[C@H]6CCC(=O)N6)nn45)cc23)CCO1 [III-118, (5R)-5-{[(3-{4-[(2R)-2-methylmorpholin-4-yl]furo[3,2-c]pyridin-2-yl}imidazo[1,2-b]pyridazin-6-yl)oxy]methyl}pyrrolidin-2-one]	2.5	1				
O=C1CNC[C@H](COc2ccc3ncc(-c4cc5ccccc5o4)n3n2)N1 [Example I-42, (6R)-6-({[3-(1-Benzofuran-2-yl)imidazo[1,2-b]pyridazin-6yl]oxy}methyl)-piperazin-2-one]			14.2	26.8		
CC1(C)CN(c2cccc3oc(-c4cnc5ccc(OC[C@H]6CCC(=O)N6)nn45)cc23)CCN1 [II-46, (5R)-5-[({3-[4-(3,3-dimethylpiperazin-1-yl)-1-benzofuran-2-yl]imidazo[1,2-b]pyridazin-6-yl}oxy)methyl]pyrrolidin-2-one]					1.4	0.2
C[C@H](N)COc1ccc2ncc(-c3cc4c(N5CCOCC5)nccc4o3)n2n1 [III-7, (2S)-1-({3-[4-(Morpholin-4-yl)furo[3,2-c]pyridin-2-yl]imidazo[1,2-b]pyridazin-6-yl}oxy)propan-2-amine]	11.6	21.7				
CC(C)(C)OC(=O)N[C@H]1C[C@H](Oc2ccc3ncc(-c4cc5c(N6CCOCC6)cccc5o4)n3n2)C1 [II-3, tert-Butyl [trans-3-({3-[4-(morpholin-4-yl)-1-benzofuran-2-yl]imidazo[1,2-b]-pyridazin-6-yl}oxy)cyclobutyl]carbamate]					110	196
COC[C@H]1CCCN1c1cccc2oc(-c3cnc4ccc(OC[C@H]5CCC(=O)N5)nn34)cc12 [II-9, (5R)-5-{[(3-{4-[(2R)-2-(Methoxymethyl)pyrrolidin-1-yl]-1-benzofuran-2-yl}imidazo[1,2-b]pyridazin-6-yl)oxy]methyl}pyrrolidin-2-one]					0.8	0.6
CN1C(=O)CC[C@H]1COc1ccc2ncc(-c3cc4ccccc4o3)n2n1 [Example I-32, (5S)-5-({[3-(1-Benzofuran-2-yl)imidazo[1,2-b]pyridazin-6-yl]oxy}methyl)-1-methylpyrrolidin-2-one]			13.7	39.8		
CN(C)[C@@H]1CCN(c2nccc3oc(-c4cnc5ccc(OC[C@H]6CCC(=O)N6)nn45)cc23)C1 [III-64, (5R)-5-{[(3-{4-[(3R)-3-(Dimethylamino)pyrrolidin-1-yl]furo[3,2-c]pyridin-2-yl}imidazo[1,2-b]pyridazin-6-yl)oxy]methyl}pyrrolidin-2-one]	0.4	0.1				
CC(=O)NC(COc1ccc2ncc(-c3cc4ccccc4o3)n2n1)c1cccnc1 (stereo not shown) [Example I-34, N-[2-{[3-(1-Benzofuran-2-yl)imidazo[1,2-b]pyridazin-6-yl]oxy}-1-(pyridin-3-yl)ethyl]acetamide]			16.4	45.1		
N[C@H]1C[C@H](Oc2ccc3ncc(-c4cc5c(N6CCOCC6)nccc5o4)n3n2)C1 [III-95, trans-3-({3-[4-(Morpholin-4-yl)furo[3,2-c]pyridin-2-yl]imidazo[1,2-b]pyridazin-6-yl}oxy)cyclobutanamine]	3.2	7.8				
O=C(c1ccccc1)N1CCOC(COc2ccc3ncc(-c4cc5ccccc5o4)n3n2)C1 (stereo not shown) [Example I-16, [2-({[3-(1-benzofuran-2-yl)imidazo[1,2-b]pyridazin-6-yl]oxy}methyl)morpholin-4-yl](phenyl)methanone]			4.7	13.3		
COC[C@H]1CCCN1c1nccc2oc(-c3cnc4ccc(O[C@H](C)CN)nn34)cc12 [III-31, (2R)-2-[(3-{4-[(2R)-2-(Methoxymethyl)pyrrolidin-1-yl]furo[3,2-c]pyridin-2-yl}imidazo[1,2-b]pyridazin-6-yl)oxy]propan-1-amine]	0.5	3				
C[C@H](N)COc1ccc2ncc(-c3cc4c(N5CCC[C@@H]5CO)nccc4o3)n2n1 [III-14, {(2R)-1-[2-(6-{[(2S)-2-Aminopropyl]oxy}imidazo[1,2-b]pyridazin-3-yl)furo-[3,2-c]pyridin-4-yl]pyrrolidin-2-yl}methanol]	6.9	17.9				
O=C1NC(COc2ccc3ncc(-c4cc5ccccc5o4)n3n2)CO1 (stereo not shown) [Example I-4, 4-({[3-(1-Benzofuran-2-yl)imidazo[1,2-b]pyridazin-6-yl]oxy}methyl)-1,3-oxazolidin-2-one]			5.6	8.8		
COC[C@H]1CCCN1c1cccc2oc(-c3cnc4ccc(OC[C@H]5CNCCO5)nn34)cc12 [II-7, 3-{4-[(2R)-2-(Methoxymethyl)pyrrolidin-1-yl]-1-benzofuran-2-yl}-6-[(2R)-morpholin-2-ylmethoxy]imidazo[1,2-b]pyridazine]					6.3	4.2
C[C@@H]1COCCN1c1nccc2oc(-c3cnc4ccc(OCCCS(C)(=O)=O)nn34)cc12 [III-58, 3-{4-[(3R)-3-Methylmorpholin-4-yl]furo[3,2-c]pyridin-2-yl}-6-[3-(methyl-sulfonyl)propoxy]imidazo[1,2-b]pyridazine]	1	4.4				
C[C@@H]1COCCN1c1cccc2oc(-c3cnc4ccc(OC[C@@H](C)N)nn34)cc12 [II-37, (2R)-1-[(3-{4-[(3R)-3-methylmorpholin-4-yl]-1-benzofuran-2-yl}imidazo[1,2-b]pyridazin-6-yl)oxy]propan-2-amine]					43.9	69.1
C[C@@H](N)COc1ccc2ncc(-c3cc4c(N5CCOC[C@@H]5C)cccc4o3)n2n1 [II-75, (2R)-1-[(3-{4-[(3S)-3-methylmorpholin-4-yl]-1-benzofuran-2-yl}imidazo[1,2-b]pyridazin-6-yl)oxy]propan-2-amine]					23	25.7
O=C(C1CC1)N1CCC[C@H]1CCOc1ccc2ncc(-c3cc4ccccc4o3)n2n1 [Example I-1, [(2S)-2-(2-{[3-(1-Benzofuran-2-yl)imidazo[1,2-b]pyridazin-6-yl]oxy}ethyl)-pyrrolidin-1-yl](cyclopropyl)methanone]			1	2.3		
COCC(=O)N1CCC[C@H]1CCOc1ccc2ncc(-c3cc4ccccc4o3)n2n1 [Example I-58, 1-[(2S)-2-(2-{[3-(1-Benzofuran-2-yl)imidazo[1,2-b]-pyridazin-6-yl]oxy}ethyl)pyrrolidin-1-yl]-2-methoxyethanone]			2.6	5.2		
COc1cccc2oc(-c3cnc4ccc(OC[C@H]5CN(C(=O)C(F)(F)F)CCO5)nn34)cc12 [Example I-20, 2,2,2-Trifluoro-1-[(2R)-2-({[3-(4-methoxy-1-benzofuran-2-yl)imidazo[1,2-b]-pyridazin-6-yl]oxy}methyl)morpholin-4-yl]ethanone]			7.7	15.5		
CN(C)C1CCN(c2nccc3oc(-c4cnc5ccc(OC[C@H]6CCC(=O)N6)nn45)cc23)CC1 [III-74, (5R)-5-{[(3-{4-[4-(Dimethylamino)piperidin-1-yl]furo[3,2-c]pyridin-2-yl}imidazo[1,2-b]pyridazin-6-yl)oxy]methyl}pyrrolidin-2-one]	1	1.5				
C[C@H]1CNCCN1c1cccc2oc(-c3cnc4ccc(OCCCS(C)(=O)=O)nn34)cc12 [II-58, 3-{4-[(2S)-2-methylpiperazin-1-yl]-1-benzofuran-2-yl}-6-[3-(methylsulfonyl)propoxy]im-idazo[1,2-b]pyridazine]					2.6	1.4

From US20160287589A1, “SUBSTITUTED-IMIDAZOPYRIDAZINES” (BAYER PHARMA AKTIENGESELLSCHAFT, priority 2013, published 2016)
